Laboratory results taken from patent US20260055088A1, “HETEROCYCLIC COMPOUND, METHOD FOR PREPARING SAME, AND PHARMACEUTICAL USE THEREOF” (Jiangsu Hengrui Pharmaceuticals Co., Ltd., priority 2022, published 2026).

Assays:
[1] = molecular target: Nav1.8 ion channel stably expressed on HEK293 cells (Homo sapiens (Human), UniProt Q9Y5Y9); assay: Inhibitory activity against Nav1.8, manual patch clamp; assay type: cell-based; details: resting protocol (-80 mV to 10 mV), 1 μM TTX, read-out: IC50 for the inhibition of Nav1.8 channel activity
From the text: The objective of the experiment was to investigate the effects of the compounds on the Nav1.8 ion channel in ex vivo experiments. The Nav1.8 ion channel is stably expressed on HEK293 cells. After the Nav1.8 current stabilized, the effects of the compounds on the Nav1.8 ion channel were obtained by comparing the magnitudes of the Nav1.8 currents before and after the compounds were applied.
• 1) A patch clamp amplifier: patch clamp PC-505B (WARNER instruments)/MultiClamp 700A (Axon instrument) • 2) A digital-to-analog converter: Digidata 1440A (Axon CNS)/Digidata 1550A (Axon instruments) • 3) A micromanipulator: MP-225 (SUTTER instrument) • 4) An inverted microscope: TL4 (Olympus) • 5) Glass micropipette puller: PC-10 (NARISHIGE) • 6) Microelectrode glass capillaries: B12024F (Wuhan VitalSense Scientific Instruments Co., Ltd.) • 7) Dimethyl sulfoxide (DMSO) D2650 (Sigma-Aldrich) • 8) TTX AF3014 (Affix Scientific)
The compounds for preparing the intracellular and extracellular fluids were purchased from Sigma (St. Louis, MO) except for the NaOH and KOH for the acid-base titrations. The extracellular fluid (mM) was: NaCl, 137; KCl, 4; CaCl2, 1.8; MgCl2, 1; HEPES, 10; glucose, 10; pH 7.4 (NaOH titration). The intracellular fluid (mM) was: aspartic acid, 140; MgCl2, 2; EGTA, 11; HEPES, 10; pH 7.2 (CsOH titration). All test and control compound solutions contained 1 μM TTX.
The test compounds were stored at a concentration of 9 mM in dimethyl sulfoxide (DMSO). On the testing day, the compounds were further dissolved in the extracellular fluid to prepare the required concentrations.
1) After the compounds were prepared into solutions with specified concentrations, the compound solutions were sequentially added to channels in ascending order according to their concentrations, and each channel was labeled.
2) A cell was transferred to the perfusion chamber. Positive pressure was applied inside the electrode, and the electrode tip was brought into contact with the cell. The three-way valve of the suction device was switched to the state where all three ways were open, and negative pressure was then applied to the electrode, allowing a high-resistance seal to form between the electrode and the cell. The application of negative pressure was continued to rupture the cell membrane, leading to the formation of a current pathway.
3) After the cell membrane rupture current stabilized, perfusion was performed with different concentrations in sequence. If the current remained stable for at least one minute, perfusion was performed with the next concentration.
4) The perfusion chamber was cleaned. The perfusion chamber was rinsed with the compound solutions in descending order according to their concentrations, with each concentration applied for 20 s. Finally, the perfusion chamber was rinsed with the extracellular fluid for 1 min.
The cell was clamped at −80 mV and then depolarized to 10 mV using a square wave lasting for 10 ms to obtain a Nav1.8 current. This procedure was repeated once every 5 seconds. The maximum current induced by the square wave was detected. After the current stabilized, perfusion was performed with the test compounds. After the reaction stabilized, the strength of the blocking was calculated.
The data were stored on a computer system and analyzed. Data acquisition and analysis were performed using pCLAMP 10 (Molecular Devices, Union City, CA), and the results were reviewed by a manager. “Current stabilized” means that the changes in current over time were within a limited range. The magnitude of the current after stabilization was used to calculate the effect of the compound at this […].
The inhibitory activity of the compounds of the present disclosure against Nav1.8 was determined through the above assay.

[2] = Pharmacokinetic evaluation in SD rats (i.g.); assay type: in vivo; details: male, Sprague-Dawley (SD), rat, plasma, po, 50 mg/kg
Method: SD rats were used as test animals. After intragastric (i.g.) administration of the example compounds to SD rats, the plasma concentrations of the compounds at different time points were determined by the LC/MS/MS method. The pharmacokinetic behaviors of the compounds of the present disclosure in SD rats were studied, and their pharmacokinetic profiles were evaluated.
Compounds 16 and 32: Four male SD rats, provided by Vital River Laboratory Animal Technology Co., Ltd. The animals were fasted overnight and then intragastrically dosed.
Compound 38: Two male SD rats, provided by Zhejiang Vital River Laboratory Animal Technology Co., Ltd. The animals were fasted overnight and then intragastrically dosed.
Compounds 16 and 32: Certain amounts of the test compounds were weighed out, and 5% DMSO+5% tween 80+90% normal saline was added to prepare 0.2 mg/mL colorless clear solutions.
Compound 38: A certain amount of the test compound was weighed out, and 25% PEG400+75% (10% TPGS+1% HPMC K100LV) was added to prepare a 5 mg/mL colorless clear solution.
Compounds 16 and 32: The administration dose was 2 mg/kg, and the administration volume was 10.0 mL/kg.
Compound 38: The administration dose was 50 mg/kg, and the administration volume was 10.0 mL/kg.
(§1) 0.2-mL blood samples were collected from the orbit before administration and 0.25, 0.5, 1.0, 2.0, 4.0, 6.0, 8.0, 11.0, and 24.0 h after administration, placed into EDTA-K2 anticoagulation test tubes, and centrifuged at 10,000 rpm for 1 min (4° C.), and the plasma was separated within 1 h and stored with dry ice before analysis. The procedures from the blood collection to the centrifugation were performed under ice-bath conditions. Access to food was given 2 h after administration.
Compounds 16 and 32: Determination of the plasma concentrations of the test compounds in SD rats after the compounds were administered at different concentrations: A 25-μL sample of the SD rat plasma collected at each time point after administration was taken, and 200 μL of acetonitrile containing an internal standard (verapamil, 100 ng/mL) was added. The mixture was vortexed and centrifuged at 3700 rpm for 10 min. 0.1 μL of the supernatant was taken for LC/MS/MS analysis.
Compound 38: Determination of the plasma concentration of the test compound in SD rats after the compound was administered at different concentrations: A 25-μL sample of the SD rat plasma collected at each time point after administration was taken, and 200 μL of acetonitrile containing an internal standard (dexamethasone, 100 ng/mL) was added. The mixture was vortexed and centrifuged at 4000 rpm for 15 min. 1 μL of the supernatant was taken for LC/MS/MS analysis.

[3] = Pharmacokinetic evaluation in CD-1 mice (i.g.); assay type: in vivo; details: male, mouse, plasma, po, 100 mg/kg
Method: CD-1 mice were used as test animals. After intragastric (i.g.) administration of the compound of the present disclosure to CD-1 mice, the plasma concentrations of the compound at different time points were determined by the LC/MS/MS method. The pharmacokinetic behavior of the compound of the present disclosure in CD-1 mice was studied, and its pharmacokinetic profile was evaluated.
Nine male CD-1 mice (3 mice per time point), provided by Vital River Laboratory Animal Technology Co., Ltd. (license: SCXK (Zhejiang) 2019-0001). The mice were intragastrically dosed.
A certain amount of the test compound was weighed out, and 25% PEG400+75% (10% TPGS+1% HPMC K100LV) was added to prepare a 10 mg/mL yellowish suspension.
The administration dose was 100 mg/kg, and the administration volume was 10 mL/kg.
as §1, with “The intragastric administration groups: 0.1-mL” for “0.2-mL”, “at −80° C.” for “with dry ice”, “conditions.” for “conditions. Access to food was given 2 h after administration.”
Determination of the plasma concentration of the test compound in CD-1 mice after the compound was administered at different concentrations: A 20-μL sample of the CD-1 mouse plasma collected at each time point after administration was taken, and 200 μL of acetonitrile containing an internal standard (dexamethasone, 100 ng/mL) was added to each sample to precipitate protein. The mixture was vortexed for 5 min and centrifuged at 4000 rpm for 15 min. 40 μL of the supernatant was taken, and 120 μL of water was added. The mixture was vortexed for 5 min, and 0.5 μL of the mixture was taken for LC/MS/MS analysis.

[4] = Pharmacokinetic evaluation in dogs (i.g.); assay type: in vivo; details: both sexes, dog, plasma, po, 2 mg/kg
Method: Dogs were used as test animals. After intragastric (i.g.) administration of the example compound to dogs, the plasma concentrations of the compound at different time points were determined by the LC/MS/MS method. The pharmacokinetic behavior of the compound of the present disclosure in dogs was studied, and its pharmacokinetic profile was evaluated.
The compound of Example 43.
Four dogs, with an equal number of males and females, provided by Weifang Shengnuo Laboratory Animal Breeding Co., Ltd (license: SCXK (Beijing) 2020-0009) and Beijing Institute of Xieerxin Biology Resource Co., Ltd (license: SCXK (Shandong) 20230001). The animals were fasted overnight and then intragastrically dosed.
A certain amount of the example compound was weighed out, and 5% DMSO+20% PG+20% PEG400+55% normal saline was added to prepare a […] colorless clear solution.
The administration dose was 2 mg/kg, and the administration volume was 10.0 mL/kg.
as §1, with “0.5-mL” for “0.2-mL”, “a forelimb vein” for “the orbit”, “11.0, 24.0, 48.0,” for “11.0,”, “72” for “24.0”
Determination of the plasma concentration of the test compound in dogs after the compound was administered at different concentrations: A 50-μL sample of the dog plasma collected at each time point after administration was taken, and 250 μL of acetonitrile containing an internal standard (labetalol, 1 μg/mL) was added. The mixture was vortexed and centrifuged at 3700 rpm for 10 min. 0.5 μL of the supernatant was taken for LC/MS/MS analysis.

[5] = read-out: Area under curve AUC0-t
[6] = read-out: Half-life T½ (converted)
[7] = read-out: Plasma concentration Cmax

| SMILES | IC50 [1] [nM] | AUC(0-t) [2, 5] [ng·h/mL] | CL/F ([2]; read-out: Clearance rate CL/F) [mL/min/kg] | half-life [2, 6] [h] | Cmax [2, 7] [ng/mL] | AUC(0-t) [3, 5] [ng·h/mL] | CL/F ([3]; read-out: Clearance rate CL/F) [mL/min/kg] | half-life [3, 6] [h] | Cmax [3, 7] [ng/mL] | AUC(0-t) [4, 5] [ng·h/mL] | CL/F ([4]; read-out: Clearance rate CL/F) [mL/min/kg] | half-life [4, 6] [h] | Cmax [4, 7] [ng/mL] |
| --- | --- | --- | --- | --- | --- | --- | --- | --- | --- | --- | --- | --- | --- |
| COc1c([C@H]2[C@H](C(=O)Nc3ccnc(C4(N)CC4)c3)O[C@@](C)(C(F)(F)F)[C@H]2C)ccc(F)c1F [Example 38, (2R,3S,4S,5R)—N-(2-(1-Aminocyclopropyl)pyridin-4-yl)-3-(3,4-difluoro-2-methoxyphenyl)-4,5-dimethyl-5-(trifluoromethyl)tetrahydrofuran-2-carboxamide] | 2.2 | 18400 | 42 | 5.84 | 1440 | 76700 | 20.3 | 5.8 | 6280 |  |  |  |  |
| COc1c([C@H]2[C@H](C(=O)Nc3cc[n+]([O-])c(/C(N)=N/O)c3)O[C@@](C)(C(F)(F)F)[C@H]2C)ccc(F)c1F [Example 43, 4-((2R,3S,4S,5R)-3-(3,4-Difluoro-2-methoxyphenyl)-4,5-dimethyl-5-(trifluoromethyl)tetrahydrofuran-2-carboxamido)-2-((Z)—N′-hydroxycarbamimidoyl)pyridine 1-oxide] | 0.3 |  |  |  |  |  |  |  |  | 250000 | 0.128 | 34.5 | 5680 |
